Structures can show the parent of a compound that is named as a salt.
Columns and labels:
[1] = design: species or system humans; settings: human, in vivo, po, 480 min
Description: In humans, oral administration of the cephalosporin derivatives according to the present invention led to urinary recovery of the corresponding unesterified cephalosporins at the recovery rates shown below in the table. Method of administration: A 125-mg (on the unesterified form basis) capsule was orally administered. Assay: Microbial method using Bacillus subtilis

[2] = Acute toxicity testing, oral, in mice; settings: mouse, in vivo, aqueous solution, male ICR mice 5 weeks of age, n=3
Description: The results obtained in oral acute toxicity testing of the cephalosporin derivatives according to the present invention in mice are shown below.
Animals: Male mice (ICR, 5 weeks of age), n=3
Method of administration: The cephalosporin derivatives obtained in the above examples were dissolved in distilled water and the aqueous solutions were orally administered.

Structure (SMILES) | Percent urinary recovery (Hour 0 to Hour 8) [1] [%] | LD50 [2] [mg/kg]
Cn1nnnc1SCC1=C(C(=O)OCOC(=O)C(C)(C)C)N2C(=O)C(NC(=O)[C@H](OC(=O)CN)c3ccccc3)C2SC1 (stereo partly drawn) [Example 1, pivaloyloxymethyl 7-[D-O-(glycyl)mandelamido]-3-[(1-methyl-1H-tetrazol-5-yl)thiomethyl]-3-cephem-4-carboxylate hydrochloride] | 38.0 | 5000
CC(=O)OC(C)OC(=O)C1=C(CSc2nnc(C)s2)CSC2C(NC(=O)[C@H](OC(=O)[C@H](C)N)c3ccccc3)C(=O)N12 (stereo partly drawn) [Example 2, 1-acetoxyethyl 7-[D-O-(L-alanyl)mandelamido]-3-[(5-methyl-1,3,4-thiadiazol-2-yl)thiomethyl]-3-cephem-4-carboxylate hydrochloride] | 35.2 | 
CCOC(=O)OC(C)OC(=O)C1=C(CSc2nncs2)CSC2C(NC(=O)[C@H](OC(=O)[C@H](C)N)c3ccccc3)C(=O)N12 (stereo partly drawn) [Example 3, 1-ethoxycarbonyloxyethyl 7-[D-O-(L-alanyl)mandelamido]-3-[(1,3,4-thiadiazol-2-yl)thiomethyl]-3-cephem-4-carboxylate] | 37.0 | 
Cc1nnc(SCC2=C(C(=O)OCOC(=O)C(C)(C)C)N3C(=O)C(NC(=O)[C@H](OC(=O)[C@@H](N)C(C)C)c4ccccc4)C3SC2)s1 (stereo partly drawn) [Example 6, Pivaloyloxymethyl 7-[D-O-(L-valyl)mandelamido]-3-[(5-methyl-1,3,4-thiadiazol-2-yl)thiomethyl]-3-cephem-4-carboxylate hydrochloride] | 36.0 | 
Cc1nnc(SCC2=C(C(=O)OCOC(=O)C(C)(C)C)N3C(=O)C(NC(=O)[C@H](OC(=O)[C@@H]4CCCN4)c4ccccc4)C3SC2)s1 (stereo partly drawn) [Example 7, Pivaloyloxymethyl 7-[D-O-(L-prolyl)mandelamido]-3-[(5-methyl-1,3,4-thiadiazol-2-yl)thiomethyl]-3-cephem-4-carboxylate hydrochloride] | 41.0 | 5000
Cc1nnc(SCC2=C(C(=O)OCc3oc(=O)oc3C)N3C(=O)C(NC(=O)[C@H](OC(=O)[C@H](C)N)c4ccccc4)C3SC2)s1 (stereo partly drawn) [Example 9, (5-Methyl-1,3-dioxolen-2-on-4-ylmethyl) 7-[D-O-(L-alanyl)mandelamido]-3-[(5-methyl-1,3,4-thiadiazol-2-yl)thiomethyl]-3-cephem-4-carboxylate hydrochloride] | 41.0 | 5000
CC(=O)OC(C)OC(=O)C1=C(CSc2nnc(C)s2)CSC2C(NC(=O)[C@H](OC(=O)[C@@H]3CCCN3)c3ccccc3)C(=O)N12 (stereo partly drawn) [Example 17, 1-Acetoxyethyl 7-[D-O-(L-prolyl)mandelamido]-3-[(5-methyl-1,3,4-thiadiazol-2-yl)thiomethyl]-3-cephem-4-carboxylate hydrochloride] | 40.9 | 5000
